Our source for the IC50 and GI50 values is US20250332173A1, “COMPOUNDS AND METHODS FOR MODULATING NUCLEIC ACID SPLICING” (REMIX THERAPEUTICS INC., priority 2021, published 2025).

For one test, the system named is HTT. Description: HiBiT protein abundance assay, HTT HiBiT K562 cell line. The format is cell-based, human. The conditions noted are these: 24 hours, top dose 10 μM. An outline of the steps: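 Tagged-protein abundance measured by split-NanoBiT luminescence after lysis, following 24 h compound exposure (37° C; 10 μM top, 3-fold, 10 points; DMSO ≤0.25%) of HiBiT knock-in K562 cells. Percent response vs DMSO and unmodified-cell controls; 4-parameter logistic interpolation at 50% gave IC50.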
In general terms: With HiBiT, luminescence reflects the tagged protein that the partner subunit can reach.

A further test deals with SMN2 mRNA. Description: RT-qPCR splicing assay, SMN2 canonical junction (CJ) mRNA. The format is cell-based, human. Conditions: Homo sapiens; canonical junction qPCR panel, Table 5; read-out: SMN2 (decrease in CJ mRNA levels, IC50). An outline of the steps: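 Cells are plated (A673 allowed 24 h to adhere), dosed with an 11-point 3-fold series topping at 10 uM final, and incubated 24 h at 37 °C. Lysis is followed by cDNA synthesis and qPCR of the CJ transcript, normalized to a housekeeping gene.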
Background: Quantitative PCR measures a nucleic acid by following its amplification.

Test [1] concerns K562 (human chronic myelogenous leukemia) cells. The test can be described thus: Cell Titer Glo 2.0 cell viability assay. The test is classed as cell-based. The conditions noted are these: Homo sapiens, K562, 72 h, K562 cells, 72 hours, Cell Titer Glo 2.0; read-out: K562 GI50.
The subject of the next test is Target C. Description: HiBiT protein abundance assay, Target C HiBiT K562 cell line. The test is classed as cell-based. Conditions: Homo sapiens; HiBiT lytic detection, modified K562 cells, 24 hours, top dose 10 μM; read-out: Effect on protein abundance, Target C (IC50). An outline of the steps:
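Protein abundance was read by Nano-Glo HiBiT lytic luminescence after 24 h compound exposure (10-point, threefold series from 10 μM final) of HiBiT knock-in K562 cells. Parental K562 served as baseline; the 50%-abundance concentration was interpolated from a four-parameter logistic fit.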

The mark [2] stands for this setting: HiBiT lytic detection, modified K562 cells, read-out: Effect on protein abundance, HTT (IC50).
The mark [3] stands for this setting: HiBiT K562 cell line, read-out: Effect on protein abundance, HTT (IC50 category).

Read-outs that look alike come from different tables or passages of the source.

Consider `Cc1cn2nc(-c3ccc4c(=O)n(C5CCNCC5)ncc4n3)cc(C)c2n1` [Compound 1247], for which the IC50 in the test with HTT (setting [2]), in the test on SMN2 mRNA and with Target C was below 100 nM throughout. Also, the GI50 (commonly the concentration that inhibits growth by half) in test [1] was 100 to 1000 nM.

As for `Cn1cc2cc(-c3ccc4c(=O)n(C5CCNC6(CC6)C5)ncc4n3)c(O)cc2n1` (stereo not shown) [Compound 1306], the IC50 (commonly the concentration that inhibits the measured activity by half) is 100 to 1000 nM in the test with HTT (setting [2]), below 100 nM with SMN2 mRNA and 100 to 1000 nM with Target C. In addition, the GI50 in test [1] was in the range of 100 to 1000 nM.

Take `CN1CCC(n2ncc3nc(-c4cc5cn(C)nc5cc4O)ccc3c2=O)CC1` [Compound 1307]: the IC50 was in the range of 1000 to 10000 nM in the test with HTT (setting [2]), 100 to 1000 nM in the test with SMN2 mRNA and 1000 to 10000 nM in the test with Target C. In addition, the GI50 in test [1] was 1000 to 10000 nM.

On to `CCN1CCC(n2ncc3nc(-c4cc(C)c5nc(C)cn5n4)ccc3c2=O)CC1` [Compound 1308], for which the IC50 was below 100 nM in the test on HTT (setting [2]), below 100 nM with SMN2 mRNA and 100 to 1000 nM in the test on Target C. Further, the GI50 in test [1] was 100 to 1000 nM.

`Cc1cn2nc(-c3ccc4c(=O)n(C5CCN(CCF)CC5)ncc4n3)cc(C)c2n1` [Compound 1309]: the IC50 is 100 to 1000 nM with HTT (setting [2]), below 100 nM with SMN2 mRNA and 100 to 1000 nM with Target C. The GI50 in test [1] fell in the range of 100 to 1000 nM.

With `CCN1CCC(n2ncc3nc(-c4cc5cn(C)nc5cc4O)ccc3c2=O)CC1` [Compound 1310], the IC50 with HTT (setting [2]) fell in the range of 1000 to 10000 nM; with SMN2 mRNA it was 100 to 1000 nM; in the test on Target C, 1000 to 10000 nM. In test [1], the GI50 is 100 to 1000 nM.

For the molecule `Cc1cn2nc(-c3ccc4c(=O)n(C5CCN(C)CC5)ncc4n3)cc(C)c2n1` [Compound 1311], the IC50 in the test on HTT (setting [2]) was 100 to 1000 nM; in the test with SMN2 mRNA, below 100 nM; in the test on Target C, 100 to 1000 nM. Moreover, in test [1], the GI50 lay within 100 to 1000 nM.

`Cc1c(O)c(-c2ncc3c(=O)n([C@H]4CCN[C@@H](C)C4)ccc3n2)cc2cn(C)nc12` [Compound 1441, 2-(6-hydroxy-2,7-dimethyl-indazol-5-yl)-6-(2-methyl-4-piperidyl)pyrido[4,3-d]pyrimidin-5-one]: the IC50 with HTT (setting [3]) and with SMN2 mRNA was below 100 nM throughout. The GI50 in test [1] was below 100 nM.

Consider `Cc1c(O)c(-c2ncc3c(=O)n(C4CCNC(C)(C)C4)ccc3n2)cc2cn(C)nc12` (stereo not shown) [Compound 1442], for which the IC50 is 100 to 1000 nM in the test with HTT (setting [3]) and below 100 nM in the test on SMN2 mRNA. In test [1], the GI50 lay in the range of 100 to 1000 nM.

Regarding `Cc1c(O)c(-c2ncc3c(=O)n([C@@H]4C[C@H]5C[C@@H]4CN5)ccc3n2)cc2cn(C)nc12` [Compound 1445, 6-[(1R,4R,5R)-2-azabicyclo[2.2.1]heptan-5-yl]-2(6-hydroxy-2,7-dimethyl-indazol-5-yl)pyrido[4,3-d]pyrimidin-5-one], the results for the IC50 in the test on HTT (setting [3]) and with SMN2 mRNA were above 10000 nM and 100 to 1000 nM, respectively. Further, the GI50 in test [1] is 1000 to 10000 nM.

As to `Cc1c(O)c(-c2ccc3c(=O)n(C4CC(C)NC(C)C4)ccc3n2)cc2cn(C)nc12` (stereo not shown) [Compound 1447, 6-(2,6-dimethyl-4-piperidyl)-2-(6-hydroxy-2,7-dimethyl-indazol-5-yl)-1,6-naphthyridin-5-one], the IC50 was 100 to 1000 nM in the test on HTT (setting [3]) and below 100 nM in the test on SMN2 mRNA. In addition, the GI50 in test [1] was in the range of 100 to 1000 nM.

Regarding `Cc1cn2cc(-c3cc(O)c4c(=O)n(C5CCNCC5)ccc4n3)cc(F)c2n1` [Compound 1448], the values for the IC50 in the test with HTT (setting [3]) and with SMN2 mRNA were 100 to 1000 nM and below 100 nM, respectively. For the same molecule, the GI50 in test [1] lay in the range of 100 to 1000 nM.

For `Cc1c(O)c(-c2ccc3c(=O)n([C@H]4CCNC4)ccc3n2)cc2cn(C)nc12` [Compound 1449, 2-(6-hydroxy-2,7-dimethyl-indazol-5-yl)-6-[(3S)-pyrrolidin-3-yl]-1,6-naphthyridin-5-one], the half-maximal inhibitory concentration (IC50) is 1000 to 10000 nM with HTT (setting [3]) and below 100 nM in the test with SMN2 mRNA. The GI50 in test [1] was 100 to 1000 nM.

With `Cc1c(O)c(-c2ccc3c(=O)n([C@@H]4CCNC4)ccc3n2)cc2cn(C)nc12` [Compound 1450, 2-(6-hydroxy-2,7-dimethyl-indazol-5-yl)-6-[(3R)-pyrrolidin-3-yl]-1,6-naphthyridin-5-one], the values for the IC50 in the test with HTT (setting [3]) and in the test with SMN2 mRNA were 1000 to 10000 nM and below 100 nM, respectively. Moreover, in test [1], the GI50 was in the range of 100 to 1000 nM.

Consider `Cn1cc2cc(-c3ccc4c(=O)n([C@H]5CCNC5)ccc4n3)c(O)c(F)c2n1` [Compound 1451, 2-(7-fluoro-6-hydroxy-2-methyl-indazol-5-yl)-6-[(3S)-pyrrolidin-3-yl]-1,6-naphthyridin-5-one], for which the IC50 in the test on HTT (setting [3]) is 100 to 1000 nM; in the test on SMN2 mRNA, below 100 nM. The GI50 in test [1] lay in the range of 100 to 1000 nM.

In the case of `Cn1cc2cc(-c3ccc4c(=O)n([C@@H]5CCNC5)ccc4n3)c(O)c(F)c2n1` [Compound 1452, 2-(7-fluoro-6-hydroxy-2-methyl-indazol-5-yl)-6-[(3R)-pyrrolidin-3-yl]-1,6-naphthyridin-5-one], the IC50 was 100 to 1000 nM in the test on HTT (setting [3]) and below 100 nM with SMN2 mRNA. Besides, the GI50 in test [1] was 100 to 1000 nM.

Regarding `Cc1c(O)c(-c2ncc3c(=O)n([C@@H]4C[C@@H](C)N[C@@H](C)C4)ccc3n2)cc2cn(C)nc12` [Compound 1453, 6-[(2S,6R)-2,6-dimethyl-4-piperidyl]-2-(6-hydroxy-2,7-dimethyl-indazol-5-yl)pyrido[4,3-d]pyrimidin-5-one], the IC50 was 1000 to 10000 nM with HTT (setting [3]) and below 100 nM in the test with SMN2 mRNA. Also, in test [1], the GI50 was in the range of 100 to 1000 nM.

For the molecule `Cc1c(O)c(-c2ncc3c(=O)n(C4C[C@@H](C)N[C@H](C)C4)ccc3n2)cc2cn(C)nc12` (stereo partly drawn) [Compound 1454, 6-[(2R,6R)-2,6-dimethyl-4-piperidyl]-2-(6-hydroxy-2,7-dimethyl-indazol-5-yl)pyrido[4,3-d]pyrimidin-5-one], the results for the IC50 with HTT (setting [3]) and in the test with SMN2 mRNA were 100 to 1000 nM and below 100 nM, respectively. In addition, the GI50 in test [1] fell in the range of 100 to 1000 nM.

Take `Cc1c(O)c(-c2ncc3c(=O)n(C4C[C@H](C)N[C@@H](C)C4)ccc3n2)cc2cn(C)nc12` (stereo partly drawn) [Compound 1455, 6-[(2S,6S)-2,6-dimethyl-4-piperidyl]-2-(6-hydroxy-2,7-dimethyl-indazol-5-yl)pyrido[4,3-d]pyrimidin-5-one]: the IC50 in the test with HTT (setting [3]) was 100 to 1000 nM; in the test with SMN2 mRNA, below 100 nM. Besides, the GI50 in test [1] is below 100 nM.

For the molecule `Cc1cn2cc(-c3cc(F)c4c(=O)n([C@@H]5CNC[C@H]5F)ccc4c3)cc(F)c2n1` [Compound 1456], the 50% inhibitory concentration (IC50) lay in the range of 1000 to 10000 nM in the test on HTT (setting [3]) and 100 to 1000 nM in the test on SMN2 mRNA. In addition, the GI50 in test [1] fell in the range of 1000 to 10000 nM.

As to `Cc1cn2cc(-c3ncc4c(=O)n([C@@H]5CCNC6(CC6)C5)ccc4n3)cc(F)c2n1` [Compound 1457, 6-[(7R)-4-azaspiro[2.5]octan-7-yl]-2-(8-fluoro-2-methyl-imidazo[1,2-a]pyridin-6-yl)pyrido[4,3-d]pyrimidin-5-one], the half-maximal inhibitory concentration (IC50) was 100 to 1000 nM in the test with HTT (setting [3]) and below 100 nM in the test on SMN2 mRNA. Also, the GI50 in test [1] lay within 100 to 1000 nM.
